The values that follow come from ChEMBL document CHEMBL1201862, “PubChem BioAssay data set” (2004).

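Interpolation was linear, between the two tested concentrations surrounding the appropriate level; five concentrations were tested over 48 hours in 96-well plates. GI50: concentration for 50% inhibition of growth.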 Active and inactive are the calls of the source. Rule as the data show it: active = GI50 up to about 1.1 µM and inactive = higher.

Holding throughout (assay): DTP human tumour cell line panel, 48 h
Test [1] has as its system MOLT-4.
In test [2] the test system is SF-539.
For test [3], the system named is HCC 2998.
Test [4] relates to LOX IMVI.
Test [5] deals with RXF 393.
Test [6] has as its system HOP-92.
The subject of test [7] is IGROV-1.
Test [8] deals with 786-0.
Test [9] relates to SN12C.
Test [10] deals with NCI-H23.
Test [11] relates to SK-OV-3.
Test [12] deals with SW-620.
Test [13] deals with M14.
The subject of test [14] is COLO 205.
The subject of test [15] is K562.

In the case of `O=Cc1ccccc1OCCOc1cc(OCCOc2ccccc2C=O)c(OCCOc2ccccc2C=O)cc1OCCOc1ccccc1C=O`, the GI50 (commonly the concentration that inhibits growth by half) was > 45.1 µM (inactive) in test [1]; > 44.5 µM (inactive) in [2]; > 100 µM (inactive) in test [3]; 36.5 µM (inactive) in test [4]; 29.6 µM (inactive) in test [5]; 26.2 µM (inactive) in [6]. Further, the GI50 is > 62.8 µM (inactive) in [7]; 24.2 µM (inactive) in test [8]; > 100 µM (inactive) in test [9]; 56.5 µM (inactive) in test [10]; > 82.4 µM (inactive) in test [11]; 46.5 µM (inactive) in test [12]. Moreover, the GI50 was > 83.9 µM (inactive) in test [13], > 100 µM (inactive) in test [14] and 50.4 µM (inactive) in [15].
Take `N#CC(C(=O)CCC(=O)Nc1cccc(C(F)(F)F)c1)c1ccccc1` (stereo not given): the GI50 in test [1], in [2], in test [3], in test [4], in test [5] and in [6] was > 100 µM (inactive) in each case. Besides, the GI50 in test [7], in [8], in test [9], in test [10], in test [12] and in [13] was > 100 µM (inactive) each time. For the same molecule, in [15], the GI50 was > 100 µM (inactive).
Take `COc1cc(/C=C/c2csnn2)cc(OC)c1OC`: the GI50 in [1] is > 100 µM (inactive); in test [2] it was > 100 µM (inactive); in [3], > 100 µM (inactive); in test [4], > 100 µM (inactive); in test [5] it was > 100 µM (inactive); in test [6], 66.7 µM (inactive). Further, the GI50 in [7], in test [8], in test [9], in test [10], in test [11] and in [12] was > 100 µM (inactive) each time. The GI50 in test [13] and in [15] was > 100 µM (inactive) in each case.
For the molecule `CCO/C([O-])=C(/C=O)[n+]1c(C)n(C)c2ccccc21`, the GI50 in [1], in [2], in test [3], in [4], in [5] and in test [7] was > 100 µM (inactive) each time. In addition, the GI50 in test [8], in test [10], in test [11], in [12], in test [13] and in test [14] was > 100 µM (inactive) each time. Also, the GI50 in test [15] is > 100 µM (inactive).
Consider `C1CCC(N=C2N(C3CCCCC3)C(=NC3CCCCC3)N2C2CCCCC2)CC1`, for which the GI50 was > 100 µM (inactive) in test [1]; > 100 µM (inactive) in [3]; > 100 µM (inactive) in [4]; > 100 µM (inactive) in test [5]; 30.3 µM (inactive) in test [6]; > 100 µM (inactive) in test [7]. For the same molecule, the GI50 in [8], in test [9], in [10], in test [11], in test [12] and in [13] was > 100 µM (inactive) throughout. Also, the GI50 in [14] and in [15] was > 100 µM (inactive) each time.
`c1ccc(C2=NOC3C4CCC(C4)C23)cc1` (stereo not given): the GI50 in test [1], in test [2], in [3], in test [6], in test [7] and in [8] was > 100 µM (inactive) throughout. The GI50 in [9], in test [10], in [11], in [12], in [13] and in test [14] was > 100 µM (inactive) throughout. The GI50 in test [15] was > 100 µM (inactive).
As for `O=C(CC1(O)C(=O)Nc2ccccc21)c1ccc(O)cc1O` (stereo not given), the GI50 in test [1], in test [2], in test [4], in test [5], in test [6] and in test [7] was > 100 µM (inactive) in each case. The GI50 in test [8], in test [9], in [10], in test [11], in test [12] and in test [13] was > 100 µM (inactive) throughout. The GI50 in test [14] and in [15] was > 100 µM (inactive) throughout.
As for `COc1ccc(/C=C/C(=O)C(C)C)cc1`, the GI50 in test [1] was 33.2 µM (inactive); in [2], 46.2 µM (inactive); in test [3] it was > 100 µM (inactive); in test [4], 32.9 µM (inactive); in test [6], 54.8 µM (inactive); in test [7], > 100 µM (inactive). The GI50 in [8] is 71.3 µM (inactive); in test [9] it was 54.3 µM (inactive); in test [10], 32.6 µM (inactive); in [11], 31 µM (inactive); in test [12] it was 33 µM (inactive); in test [13], 28.3 µM (inactive). Further, the values for the GI50 in test [14] and in test [15] were 40 µM (inactive) and 32.8 µM (inactive), respectively.
In the case of `CC(=O)NC(CCCCN(Cc1ccccc1)C(=O)NCCCl)C(=O)NCc1ccccc1` (stereo not given), the GI50 in [1], in test [2], in [3], in test [6], in [7] and in [8] was > 100 µM (inactive) throughout. Also, the GI50 in test [9], in test [10], in test [12], in test [13], in test [14] and in test [15] was > 100 µM (inactive) in each case.
For the molecule `CCOC(=O)CN1C(=O)c2cccc3cc([N+](=O)[O-])cc(c23)C1=O`, the GI50 is 0.373 µM (active) in [1]; 3.57 µM (inactive) in test [2]; 4.23 µM (inactive) in [3]; 1.43 µM (inactive) in [4]; 1.84 µM (inactive) in test [5]; 2.19 µM (inactive) in [6]. The GI50 is 3.97 µM (inactive) in test [7]; 13.4 µM (inactive) in [8]; 4.93 µM (inactive) in [9]; 2.04 µM (inactive) in test [10]; 26.2 µM (inactive) in [11]; 1.59 µM (inactive) in test [12]. The GI50 in test [13] was 3.35 µM (inactive); in test [15], 0.459 µM (active).
For `CCOc1cccc2c1N[S@@](=O)S2`, the GI50 in test [1] was 55.3 µM (inactive); in test [2] it was > 100 µM (inactive); in test [4] it was > 100 µM (inactive); in test [6] it was > 100 µM (inactive); in test [7], > 100 µM (inactive); in [8] it was > 100 µM (inactive). Besides, the GI50 in [9] was > 100 µM (inactive); in [10] it was > 100 µM (inactive); in [11], > 100 µM (inactive); in test [12] it was > 100 µM (inactive); in test [13] it was > 100 µM (inactive); in test [15] it was 53.3 µM (inactive).
As to `ClC1c2ccccc2C2(c3ccccc3)OOC1(c1ccccc1)O2` (stereo not given), the GI50 in test [1] was 1.26 µM (inactive); in test [2], 2.31 µM (inactive); in test [3] it was 2.34 µM (inactive); in [4], 0.352 µM (active); in test [5] it was 1.4 µM (inactive); in test [6], 0.39 µM (active). Also, the GI50 in test [8] is 1.61 µM (inactive); in test [9], 1.48 µM (inactive); in test [10] it was 1.8 µM (inactive); in test [12], 1.39 µM (inactive); in test [13], 1.45 µM (inactive); in test [14], 1.87 µM (inactive). The GI50 in test [15] was 1.38 µM (inactive).
`Cc1c2cc[n+](COC(=O)c3ccccc3)cc2c(C)c2c1[nH]c1ccccc12`: the GI50 in test [1] was 0.255 µM (active); in test [2], 0.416 µM (active); in test [4] it was 0.436 µM (active); in [6], 0.682 µM (active); in [7], 0.299 µM (active); in [8], 0.778 µM (active). Moreover, the GI50 in test [9] is 0.533 µM (active); in test [10], 0.849 µM (active); in test [11], 1.39 µM (inactive); in [12] it was 0.383 µM (active); in test [14], 0.43 µM (active); in test [15] it was 0.388 µM (active).
Regarding `NC1CCCCC1.O=P(O)(O)C1(P(=O)(O)O)CC1`, the GI50 in [1], in test [2], in test [3], in [4], in [5] and in [7] was > 100 µM (inactive) each time. In addition, the GI50 in test [8], in test [9], in test [10], in test [11], in test [12] and in [13] was > 100 µM (inactive) in each case. Further, the GI50 in test [14] and in [15] was > 100 µM (inactive) in each case.
For `CC(=O)NC1=C(C)C(=O)c2c(nc3n2CCC3O)C1=N` (stereo not given), the GI50 in test [1] was 1.95 µM (inactive); in test [2], 4.15 µM (inactive); in test [3], 21.3 µM (inactive); in test [4] it was 5.85 µM (inactive); in [6] it was 4.36 µM (inactive); in [7], 18.7 µM (inactive). The GI50 in test [8] is 18.6 µM (inactive); in [9], 6.19 µM (inactive); in [10], 14.8 µM (inactive); in test [11] it was 28.2 µM (inactive); in test [12] it was 13.3 µM (inactive); in test [14], 18.9 µM (inactive). The GI50 in test [15] is 8.67 µM (inactive).
